≈ marks a conversion by molar mass, not a printed value. Where two headings read alike, the source gives them in different places.
Assays:
[1] = redox-active molecules used in negolytes in ARFBs; cited from earlier work
[2] = Water solubility by shake-flask method in alkaline aqueous solution; assay type: physicochemical; details: for solubility: aqueous buffer, thermodynamic from solid
Procedure: The solubility of the compounds was evaluated in aqueous solution at various pH by shake-flask method. An aqueous solution (containing either KOH 1 M, NaOH 1 M, or a mixture of KOH 0.5 M and NaOH 0.5 M) is added over 100 mg of compound by 20 μL portions until complete solubilization. We obtain an approximate range of solubility values calculated as following:
Smax˜(m/M)/V; m=mass of evaluated compound(g);M=molar mass of evaluated compound(g·mol^−1);V=added volume(L).

[3] = Electrochemical properties at diluted state (cyclic voltammetry, RDE linear sweep voltammetry); assay type: physicochemical; details: for k^0′O × 10^−2 apparent heterogeneous rate constant: Gileadi's equation, transfer coefficient 0.5; for E1/2 half-wave potential: LSV with RDE, 400 up to 1 000 RPM, pH 14; for DO × 10^−6 diffusion coefficient: Randles-Sevcik, scan rates 10 mV/s up to 20 V/s; for Peak-to-peak separation ΔEp at pH 14: pH 14 (KOH 1 M), 5.10^−3 M, scan rate 100 mV·s^−1, third cycle
Procedure: Cyclic voltammetry experiments were performed at a 100 mV/s scan rate for compounds A, B and B-M3CH in a solution at pH 14 (KOH 1 M).
The electrochemical experiments were conducted on an electrochemical working station (BioLogic Science Instruments VSP) at 25° C. using a three-electrodes electrochemical cell, where a Pt wire was employed at the counter electrode (CE), an Ag/AgCl/KCl saturated electrode immerged in a 1 M KOH solution protected from the cell by a porous frit glass served as the reference electrode (RE) and a rotating disc electrode (RDE) mounted with a glassy carbon (GC, 7.069 mm^2) disk was used as the working electrode (WE), respectively. The potential was reported relative to the normal hydrogen electrode (NHE), which was converted from the Ag/AgCl reference electrode (0.230 V versus NHE). The ohmic drop between the WE and RE is determined by current interrupt experiments and leads to a value close to 0.7069 Ω·cm^2. All cyclic voltammetry experiments were conducted by alleviating most of this resistance (85%) using the potentiostat manual ohmic drop compensation. Before each electrochemical measurement, the GC disk electrode was polished using SiC P4000 foil.
Each recorded cyclic voltammetry of the reduction and the oxidation process of a compound at a given scan rate is analyzed by measuring ip,a=anodic peak current; ip,c=cathodic peak current; v=scan rate; Ep,a=anodic peak potential; Ep,c=cathodic peak potential; ΔEp=Ep,a−Ep,c; the apparent standard redox potential E^0′=[…].
Linear sweep voltammetry (LSV) using the RDE at various rotation speed (400 up to 1 000 RPM) were performed to determine the averaged half-wave potential E1/2.
The oxidation (DO) and the reduction (DR) diffusion coefficients were calculated using Randles-Sevcik (RS) equation ip=0.4463.n^3/2.F^3/2.A.C.v^1/2.D^1/2.R^−1/2.T^−1/2=Cte.v^1/2.D^1/2, n=number of electrons exchanged during the redox process; F=faradaic number=96485 C·mol^−1; A=electrode active surface; C=redox active molecule concentration; R=gas constant=8.314 J·K^−1·mol^−1; T=bulk temperature=299 K. The experiments are conducted by cyclic voltammetry at various scan rates ranging from 10 mV/s up to 20 V/s.
A graphic of |ip,a| and |ip,c|=f(Cte.v^1/2) is plotted, if the redox process is reversible and diffusion controlled, the peak current should be proportional to the square root of the scan rate. The diffusion coefficients (oxidation and reduction) are then calculated by taking the square of the regression lines slopes. Diffusion coefficients (oxidation and reduction processes) are evaluated by plotting the peak current versus a constant multiplied by the square root of the scan rate. The plots regression line gives a straight line with perfect correlation coefficient (100%) confirming that the redox process is reversible and diffusion controlled. The square of each slope gives the associated coefficient diffusion in cm^2·s^−1.
The apparent heterogeneous rate constant during reduction (k^0′O) process was calculated using Gileadi's equation (C. Russel, W. Jaenicke, Electrochimica Acta, Vol 27, No. 12, 1745-1750, 1982) log k^0′=−0.48.α+0.52+log[(n.F.α.vc.D)/(2.303.R.T)]^1/2; vc is the critical scan rate, it is calculated by plotting the peak potentials versus the logarithm of the scan rates, and is more precise when a very wide range of scan rates is used, which is the case here (0.010 up to 20 V·s^−1), it is determined at the x-axis of the point of intersection of the regression lines drawn at low and high scan rates; a is the transfer coefficient that is supposed to be close to 0.5 for all presented compounds.
Peak-to-peak separation ΔEp values were determined from the third cycle of each cyclic voltammogram and are gathered in the following table 2.
The standard redox process reversibility evaluation is performed in diluted state, at 5 mM of concentration, at pH 14 buffered with 1 M of KOH. […]

[4] = Post-cycling analyses of the negolyte (cyclic voltammetry and 1H NMR before and after cycling); assay type: physicochemical; details: for chemical stability in the application: conclusion from cycling and post-cycling analyses; for degradation during the cycling test (1H NMR in D2O before/after): negolyte after cycling
Procedure: FIG. 3: Cyclic voltammetry (3rd cycle) of the negolyte (black line) before the cycling test and (grey line) after cycling test, recorded at a scan rate of 100 mV·s^−1.
FIG. 4: ^1H NMR spectra of the negolyte, recorded in D2O between 0 and 10 ppm, (black line) before and (grey line) after the cycling test.
A preliminary electrochemical test was performed on the negolyte before and after the cycling test (FIG. 3).
Further analyses were performed using ^1H NMR spectroscopy, see FIG. 4.
A preliminary electrochemical test was performed on the negolyte before and after thousands of cycles and a few months of cycling test (FIG. 7).
Further analyses were performed using ^1H NMR spectroscopy, see FIG. 8.
A preliminary electrochemical test was performed on the negolyte before and after the cycling test (FIG. 10) which lasted for more than 1000 cycles, or 25 days of constant cycling.
Further analyses were performed using ^1H NMR spectroscopy, see FIG. 11.

[5] = aqueous KOH 1 M solution, aqueous KOH 1 M, shake-flask, approximate, read-out: solubility estimated, KOH (1M)
[6] = aqueous NaOH 1 M solution, aqueous NaOH 1 M, shake-flask, approximate, read-out: solubility estimated, NaOH (1M)
[7] = aqueous alkaline solution, aqueous alkaline environment, read-out: solubility in aqueous alkaline environment
[8] = aqueous mixture of KOH 0.5 M and NaOH 0.5 M, mixture of KOH 0.5 M and NaOH 0.5 M, shake-flask, approximate, read-out: solubility estimated, KOH 0.5M + NaOH 0.5M

Compound | DO × 10^−6 [1] | k^0′O × 10^−2 [1] | solubility [2, 5] | solubility [2, 6] | solubility [2, 8] | k^0′O × 10^−2 apparent heterogeneous rate constant [3] | E1/2 half-wave potential [3] | DO × 10^−6 diffusion coefficient [3] | Peak-to-peak separation ΔEp at pH 14 [3] | degradation during the cycling test (1H NMR in D2O before/after) [4] | further results
C[N+](C)(C)CCC[n+]1ccc(-c2cc[n+](CCC[N+](C)(C)C)cc2)cc1.[Cl-].[Cl-].[Cl-].[Cl-] [BTMAP-Vi] | 3.3 × 10^−6 cm^2/s | 2.2 × 10^−2 cm/s |  |  |  |  |  |  |  |  | 
Cc1c(C(=O)O)c(O)cc2c1C(=O)c1c(O)cccc1C2=O [Compound A] |  |  | 480 mM (≈ 143 mg/mL) | 320 mM (≈ 95.4 mg/mL) | 490 mM | 0.78 × 10^−2 cm/s | −0.59 V vs NHE | 3.65 × 10^−6 cm^2/s | 56 mV | degraded into multiple compounds | solubility [2, 7]: > 300 mM; oxidation not originally present in the negolyte ([4]; after cycling): −0.57 V vs Ag/AgCl; chemical stability in the application [4]: low chemical stability
Cc1cc(OCCCC(=O)O)cc2c1C(=O)c1c(O)cccc1C2=O [Compound B-M3CH, 4-((5-hydroxy-4-methyl-9,10-dioxo-9,10-dihydroanthracen-2-yl)oxy)butanoic acid] |  |  | 150 mM (≈ 51 mg/mL) | 150 mM (≈ 51 mg/mL) | ~430 mM | 2.47 × 10^−2 cm/s | −0.49 V vs NHE | 4.58 × 10^−6 cm^2/s | 30 mV | does not undergo any degradation | solubility ([2]; aqueous KOH 1 M or NaOH 1 M solution, KOH 1 M or NaOH 1 M, read-out: solubility in ionic environment containing one type of alkaline cation): ~150 mM (≈ 51 mg/mL); solubility estimated, KOH 0.5M + NaOH 0.5M ([2]; mixture of KOH 0.5 M and NaOH 0.5 M, shake-flask, approximate): 430 mM; increase of redox signature current intensity after cycling ([4]; after more than 1000 cycles, 25 days, ascribed to osmosis concentration): about 30%; chemical stability in the application [4]: increased its stability
Cc1cc2nc3c(=O)[nH]c(=O)nc-3n(C[C@H](O)[C@H](O)[C@H](O)COP(=O)([O-])O)c2cc1C.[Na+] [Flavine FMN-Na] | 1.3 × 10^−6 cm^2/s | 0.53 × 10^−2 cm/s |  |  |  |  |  |  |  |  | 
O=C1c2ccc(OCCCP(=O)(O)O)cc2C(=O)c2ccc(OCCCP(=O)(O)O)cc21 [DPPEAQ] | 1.37 × 10^−6 cm^2/s |  |  |  |  |  |  |  |  |  | 
O=C(O)CCCOc1ccc2c(c1)C(=O)c1ccc(OCCCC(=O)O)cc1C2=O [DBEAQ] | 1.58 × 10^−6 cm^2/s | 0.70 × 10^−2 cm/s |  |  |  |  |  |  |  |  | 
Cc1cc(O)cc2c1C(=O)c1c(O)cccc1C2=O [Compound B, 3,8-dihydroxy-1-methylanthracene-9,10-dione] |  |  | 580 mM (≈ 147 mg/mL) | 500 mM (≈ 127 mg/mL) | 630 mM | 0.80 × 10^−2 cm/s | −0.57 V vs NHE | 2.99 × 10^−6 cm^2/s | 40 mV | does not undergo any degradation | solubility [2, 7]: > 300 mM; decrease of redox signature current intensity after cycling ([4]; after thousands of cycles and a few months, ascribed to osmosis dilution): 30-35%
O=C1c2ccc(O)cc2C(=O)c2ccc(O)cc21 [DHAQ] | 4.8 × 10^−6 cm^2/s | 0.70 × 10^−2 cm/s |  |  |  |  |  |  |  |  | 
O=C1c2ccc(S(=O)(=O)O)cc2C(=O)c2cc(S(=O)(=O)O)ccc21 [AQ-2,7-DS] | 3.8 × 10^−6 cm^2/s | 0.72 × 10^−2 cm/s |  |  |  |  |  |  |  |  | 
O=C1C=C(O)C(=O)C=C1O [DHBQ] | 3.66 × 10^−6 cm^2/s | 0.21 × 10^−2 cm/s |  |  |  |  |  |  |  |  | 

Reference: patent US20240297323A1, “BIOBASED AQUEOUS ORGANIC-BASED ELECTROLYTE IN AQUEOUS ORGANIC REDOX FLOW BATTERY” (KEMIWATT, priority 2021, published 2024)
